The results in this text go back to patent US20260327240A1, “1,4-CINEOLE DERIVATIVE AND INTERMEDIATE THEREOF, HERBICIDE CONTAINING SAID DERIVATIVE AS ACTIVE INGREDIENT, METHOD FOR USING HERBICIDE, AND METHOD FOR PREPARING AGROCHEMICAL COMPOSITION” (HOKKO CHEMICAL INDUSTRY CO., LTD., priority 2023, published 2026).

Molecules are shown by their SMILES.

Assay type in all cases: in vivo
In experiment [1] the test system is Echinochloa crus-galli var. formosensis. The experiment is described as follows: Comparative Example: herbicidal effect test by application during growth period of paddy rice (three-leaf stage). Particulars: 504 h, 7.5 g per 10 ares, 21 days after application, triplicate, read-out: Weed inhibition rate (%). On the procedure:
As an example, the herbicidal effect on Echinochloa crus-galli var. formosensis at the three-leaf stage was confirmed by the following method, and the results are specifically shown in Table 7 as a comparative example.
(§1) Herbicidal Effect Test by Application During Growth Period of Paddy Rice
Wagner pots with an area of […] were filled with paddy soil, followed by addition of water and incorporation of chemical fertilizer (N:P:K=16:16:16), after which puddling was performed. After that, 30 seeds of Echinochloa crus-galli var. formosensis were sown at a depth of 0 cm to 1 cm. Immediately after sowing, the pots were flooded and a water depth of approximately 3 cm was maintained. Subsequent management was conducted in a glass greenhouse. When Echinochloa crus-galli var. formosensis reached the three-leaf stage, an emulsifiable concentrate prepared according to Formulation Example 5 using the compound shown below was diluted with water, and a specified amount of the diluted solution was applied by dropper. The amount of the active ingredient to be applied was equivalent to 7.5 g per 10 ares. The test was conducted in triplicate for each chemical concentration group, and the weed inhibition rate (%) was determined 21 days after chemical application using the following formula (Math. 1).

The test system is the same in experiment [2]. The experiment is described as follows: Test Example 1: herbicidal effect test by soil application in paddy rice. Particulars: 120 g per 10 ares, 14 days after application. The protocol:
(§2) Herbicidal Effect Test by Soil Application in Paddy Rice
(§3) Wagner pots with an area of […] were filled with paddy soil, followed by addition of water and incorporation of chemical fertilizer (N:P:K=16:16:16), after which puddling was performed. After that, seeds of Echinochloa crus-galli var. formosensis, broad-leaved weeds (Lindernia pyxidaria and Monochoria vaginalis), and Scirpus juncoides were sown at a depth of 0 cm to 1 cm, 30 seeds each. Immediately after sowing, the pots were flooded and a water depth of approximately 3 cm was maintained. Subsequent management was conducted in a glass greenhouse. Immediately thereafter, an emulsifiable concentrate prepared according to Formulation Example 5 using the compound shown below was diluted with water, and a specified amount of the diluted solution was applied by dropper. The amount of the active ingredient to be applied was equivalent to 120 g per 10 ares.
(§4) The present test was conducted in duplicate for each chemical concentration group, and the weed inhibition rate (%) was determined 14 days after chemical application using the following formula (Math. 1).

Experiment [3] has as its system Scirpus juncoides. Described as above. Particulars: 120 g per 10 ares, 14 days after application. The protocol:
as §2, §3, §4

The subject of experiment [4] is Echinochloa crus-galli var. formosensis. Put plainly: Test Example 2: herbicidal effect test by application during growth period of paddy rice. Particulars: 7 days after sowing, 120 g per 10 ares, 14 days after application. On the procedure: as §1
as §3, with “(Lindemia pyxidaria,” for “(Lindernia pyxidaria”, “Seven days after sowing,” for “Immediately thereafter,”, “ares. The test was conducted in duplicate for each chemical concentration group, and the herbicidal effect was evaluated 14 days after chemical application using the same criteria as in Test Example 1.” for “ares.”

The test system of experiment [5] is Amaranthus viridis. The experiment is described as follows: Test Example 3: herbicidal effect test by soil application in upland field. The conditions noted are these: 1 day after sowing, 120 g per 10 ares, 14 days after application. On the procedure: (§5) Herbicidal Effect Test by Soil Application in Upland Field
(§6) Pots with an area of 36 cm^2 were filled with upland soil (alluvial loam), twenty seeds each of weeds of Digitaria ciliaris, Echinochloa crus-galli, Chenopodium album, and Amaranthus viridis were uniformly mixed with the top 1 cm layer of soil and the surface was lightly pressed down. One day after sowing, an emulsifiable concentrate prepared according to Formulation Example 5 using the compound shown below was diluted with water, and the diluted solution was sprayed onto the soil surface at a rate of 100 liters per 10 ares. The amount of the active ingredient to be applied was equivalent to 120 g per 10 ares. Fourteen days after chemical application, the herbicidal effect was evaluated according to the same criteria as in Test Example 1.

In a further experiment the test system is Chenopodium album. Described as above. The conditions noted are these: 1 day after sowing, 120 g per 10 ares, 14 days after application. On the procedure:
as §5, §6

In experiment [6] the test system is Digitaria ciliaris. The experiment is described as above. The conditions noted are these: 1 day after sowing, 120 g per 10 ares, 14 days after application. The protocol: as §5, §6
Experiment [7] has as its system Echinochloa crus-galli. The experiment is described as above. The conditions noted are these: 1 day after sowing, 120 g per 10 ares, 14 days after application. On the procedure: as §5, §6
Experiment [8] deals with Digitaria ciliaris. Put plainly: Test Example 4: herbicidal effect test by stem and leaf treatment in upland field. The conditions noted are these: 7 days after sowing, 120 g per 10 ares, 14 days after application. On the procedure: (§7) Herbicidal Effect Test by Stem and Leaf Treatment in Upland Field
as §6, with “Seven days” for “One day”

Experiment [9] concerns Echinochloa crus-galli. The description is as above. Particulars: 7 days after sowing, 120 g per 10 ares, 14 days after application. On the procedure: as §7
as §6, with “Seven days” for “One day”

Experiment [10] concerns Echinochloa crus-galli var. formosensis. The experiment is described as follows: Test Example 5: herbicidal effect test by soil application in paddy rice. Particulars: 7.5 g per 10 ares, 14 days after application. The protocol:
as §2
as §3, with “(Lindemia pyxidaria,” for “(Lindernia pyxidaria”, “7.5” for “120”
(§8) The present test was conducted in duplicate for each chemical concentration group, and the herbicidal effect was evaluated 14 days after chemical application using the same criteria as in Test Example 1.

Experiment [11] deals with Scirpus juncoides. The experiment is described as above. Particulars: 7.5 g per 10 ares, 14 days after application. On the procedure:
as §2
as §3, with “(Lindemia pyxidaria,” for “(Lindernia pyxidaria”, “7.5” for “120”
as §8

In experiment [12] the test system is Amaranthus viridis. The experiment is described as follows: Test Example 7: herbicidal effect test by soil application in upland field. Particulars: 1 day after sowing, 7.5 g per 10 ares, 14 days after application. On the procedure: as §5
as §6, with “7.5” for “120”

Experiment [13] relates to Echinochloa crus-galli. The experiment is described as above. The conditions noted are these: 1 day after sowing, 7.5 g per 10 ares, 14 days after application. On the procedure: as §5
as §6, with “7.5” for “120”

Experiment [14] has as its system Echinochloa crus-galli. Put plainly: Test Example 8: herbicidal effect test by stem and leaf treatment in upland field. Particulars: 7 days after sowing, 7.5 g per 10 ares, 14 days after application. The protocol:
as §7
as §6, with “Seven days” for “One day”, “7.5” for “120”

Experiment [15] concerns Monochoria vaginalis. The experiment is described as follows: Test Example 1: herbicidal effect test by soil application in paddy rice. The conditions noted are these: 120 g per 10 ares, 14 days after application. The protocol:
as §2, §3, §4

Experiment [16] has as its system Monochoria vaginalis. Put plainly: Test Example 2: herbicidal effect test by application during growth period of paddy rice. The conditions noted are these: 7 days after sowing, 120 g per 10 ares, 14 days after application. The protocol: as §1
as §3, with “(Lindemia pyxidaria,” for “(Lindernia pyxidaria”, “Seven days after sowing,” for “Immediately thereafter,”, “ares. The test was conducted in duplicate for each chemical concentration group, and the herbicidal effect was evaluated 14 days after chemical application using the same criteria as in Test Example 1.” for “ares.”

The subject of experiment [17] is Scirpus juncoides. The experiment is described as above. The conditions noted are these: 7 days after sowing, 120 g per 10 ares, 14 days after application. The protocol:
as §1
as §3, with “(Lindemia pyxidaria,” for “(Lindernia pyxidaria”, “Seven days after sowing,” for “Immediately thereafter,”, “ares. The test was conducted in duplicate for each chemical concentration group, and the herbicidal effect was evaluated 14 days after chemical application using the same criteria as in Test Example 1.” for “ares.”

Experiment [18] has as its system Monochoria vaginalis. The experiment is described as follows: Test Example 5: herbicidal effect test by soil application in paddy rice. The conditions noted are these: 7.5 g per 10 ares, 14 days after application. On the procedure:
as §2
as §3, with “(Lindemia pyxidaria,” for “(Lindernia pyxidaria”, “7.5” for “120”
as §8

Experiment [19] has as its system Echinochloa crus-galli var. formosensis. Put plainly: Test Example 6: herbicidal effect test by application during growth period of paddy rice. Particulars: 7 days after sowing, 7.5 g per 10 ares, 14 days after application. The protocol:
as §1
as §3, with “(Lindemia pyxidaria,” for “(Lindernia pyxidaria”, “Seven days after sowing,” for “Immediately thereafter,”, “7.5” for “120”, “ares. The test was conducted in duplicate for each chemical concentration group, and the herbicidal effect was evaluated 14 days after chemical application using the same criteria as in Test Example 1.” for “ares.”

In experiment [20] the test system is Monochoria vaginalis. The experiment is described as above. The conditions noted are these: 7 days after sowing, 7.5 g per 10 ares, 14 days after application. The protocol:
as §1
as §3, with “(Lindemia pyxidaria,” for “(Lindernia pyxidaria”, “Seven days after sowing,” for “Immediately thereafter,”, “7.5” for “120”, “ares. The test was conducted in duplicate for each chemical concentration group, and the herbicidal effect was evaluated 14 days after chemical application using the same criteria as in Test Example 1.” for “ares.”

Experiment [21] has as its system Digitaria ciliaris. Put plainly: Test Example 7: herbicidal effect test by soil application in upland field. Particulars: 1 day after sowing, 7.5 g per 10 ares, 14 days after application. On the procedure:
as §5
as §6, with “7.5” for “120”

For `C=C1C(OCc2ccccc2C)C2(C)CCC1(C(C)C)O2` (stereo not drawn), the inhibition (as a rule, the relative decrease from the control value, in per cent) at 75 g/ha in [1] was found to be 20%.
As to `CC(C)[C@]12C[C@@H](OCc3ccccc3C(F)(F)F)[C@](C)(CC1=O)O2` [2-29, (1R,4S5R)-1-isopropyl-4-methyl-5-((2-(trifluoromethyl)benzyl)oxy)-7-oxabicyclo[2.2.1]heptan-2-one], the weed inhibition rate (in experiment [2]; in the experiment with Scirpus juncoides [3]; in experiment [4]; in the experiment on Amaranthus viridis [5]; with Chenopodium album; with Digitaria ciliaris [6]) was no less than 80% in each case. Moreover, the weed inhibition rate (in the experiment on Echinochloa crus-galli [7]; in the experiment with Digitaria ciliaris [8]; with Echinochloa crus-galli [9]; in [10]; with Scirpus juncoides [11]; with Amaranthus viridis [12]) was no less than 80% in each case. For the same compound, the weed inhibition rate in the experiment on Echinochloa crus-galli [13] and in the experiment on Echinochloa crus-galli [14] was no less than 80% in each case.
Turning to `CC(C)C1C[C@]2(C)O[C@@]1(C(C)C)C[C@H]2OCc1ccccc1F` (stereo partly drawn) [1-133, (1S,2R,4R)-2-[(2-fluorobenzyl)oxy]-4,5-isopropyl-1-methyl-7-oxabicyclo[2.2.1]heptane], the weed inhibition rate (in [2]; in the experiment on Monochoria vaginalis [15]; in the experiment with Scirpus juncoides [3]; in experiment [4]; with Monochoria vaginalis [16]; in the experiment on Scirpus juncoides [17]) was no less than 80% in each case. In addition, the weed inhibition rate (with Digitaria ciliaris [6]; in the experiment with Echinochloa crus-galli [7]; with Digitaria ciliaris [8]; with Echinochloa crus-galli [9]; in experiment [10]; in the experiment with Monochoria vaginalis [18]) was no less than 80% throughout. Moreover, the weed inhibition rate (in the experiment on Scirpus juncoides [11]; in [19]; in the experiment on Monochoria vaginalis [20]; with Digitaria ciliaris [21]; with Echinochloa crus-galli [13]; in the experiment with Echinochloa crus-galli [14]) was no less than 80% in each case.
